Laboratory results: patent publication US11414416B1, “Compounds and uses thereof” (Foghorn Therapeutics Inc., priority 2019, dated 2022)
pIC50: −log10 of the molar value. Where two headings read alike, the source gives them in different places.

Biological target: Nanoluciferase-BRD9 fusion protein (Homo sapiens (Human), UniProt Q9H8M2)
Assay: SYO1 BRD9 NanoLuc degradation assay
Format: cell-based
Conditions: SYO-1 cells expressing 3×FLAG-NLuc-BRD9, 6 hours; for DC50: read-out: SYO1 BRD9-NanoLuc degradation IC50
Procedure: Procedure: A stable SYO-1 cell line expressing 3×FLAG-NLuc-BRD9 was generated. On day 0 cells were seeded in 30 μL media into each well of 384-well cell culture plates. The seeding density was 8000 cells/well. […] Subsequently plates were incubated for 6 hours in a standard tissue culture incubator and equilibrated at room temperature for 15 minutes. Nanoluciferase activity was measured by adding 15 μL of freshly prepared Nano-Glo Luciferase Assay Reagent (Promega N1130), shaking the plates for 10 minutes and reading the bioluminescence using an EnVision reader.
DMSO treated cells are employed as High Control (HC) and 1 μM of a known BRD9 degrader standard treated cells are employed as Low Control (LC).

Nanoluciferase-BRD9 fusion protein, sequence (Q9H8M2 whole entry, the tested form may be a part): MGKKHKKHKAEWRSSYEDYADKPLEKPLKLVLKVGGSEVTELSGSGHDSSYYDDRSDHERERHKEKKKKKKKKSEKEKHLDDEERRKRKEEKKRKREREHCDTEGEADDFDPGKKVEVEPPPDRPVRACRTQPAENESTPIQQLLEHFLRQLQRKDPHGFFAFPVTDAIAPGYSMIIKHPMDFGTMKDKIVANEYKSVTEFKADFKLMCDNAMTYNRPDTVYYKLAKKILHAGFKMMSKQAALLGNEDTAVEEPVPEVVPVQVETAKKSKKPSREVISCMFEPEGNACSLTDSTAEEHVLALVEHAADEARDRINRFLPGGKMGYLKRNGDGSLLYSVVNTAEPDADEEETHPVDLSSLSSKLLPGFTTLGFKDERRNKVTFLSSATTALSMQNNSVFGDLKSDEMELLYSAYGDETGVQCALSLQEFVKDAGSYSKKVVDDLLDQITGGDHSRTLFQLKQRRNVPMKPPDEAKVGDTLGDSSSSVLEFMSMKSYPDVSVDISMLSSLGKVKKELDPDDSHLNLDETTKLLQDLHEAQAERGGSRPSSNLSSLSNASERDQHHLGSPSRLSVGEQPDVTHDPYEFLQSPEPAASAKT

COc1cc(-c2cn(C)c(=O)c3cnccc23)cc(OC)c1CN1CC2(CC(CCOc3ccc4c(c3)C(=O)N(C3CCC(=O)NC3=O)C4=O)C2)C1 (stereo not shown) [Compound D48, 5-(2-(2-(2,6-dimethoxy-4-(2-methyl-1-oxo-1,2-dihydro-2,7-naphthyridin-4-yl)benzyl)-2-azaspiro[3.3]heptan-6-yl)ethoxy)-2-(2,6-dioxopiperidin-3-yl)isoindoline-1,3-dione formic acid] was tested, and the DC50 (Table 5A) was 10 to 100 nM.

COc1cc(-c2cn(C)c(=O)c3cnccc23)cc(OC)c1CN1CCC2(CC1)CN(CCOc1ccc3c(c1)C(=O)N(C1CCC(=O)NC1=O)C3=O)CCO2 (stereo not shown) [Compound D49, 5-[2-(9-[[2,6-dimethoxy-4-(2-methyl-1-oxo-2,7-naphthyridin-4-yl)phenyl]methyl]-1-oxa-4,9-diazaspiro[5.5]undecan-4-yl)ethoxy]-2-(2,6-dioxopiperidin-3-yl)isoindole-1,3-dione] showed a DC50 (Table 5A) of over 1000 nM.

With COc1cc(-c2cn(C)c(=O)c3cnccc23)cc(OC)c1CN1CCC2(CC1)CN(CCCCOc1ccc3c(c1)C(=O)N(C1CCC(=O)NC1=O)C3=O)CCO2 (stereo not shown) [Compound D50, 5-(4-(9-(2,6-dimethoxy-4-(2-methyl-1-oxo-1,2-dihydro-2,7-naphthyridin-4-yl)benzyl)-1-oxa-4,9-diazaspiro[5.5]undecan-4-yl)butoxy)-2-(2,6-dioxopiperidin-3-yl)isoindoline-1,3-dione] the DC50 (Table 5A) was under 10 nM.

COc1cc(-c2cn(C)c(=O)c3cnccc23)cc(OC)c1CN(C)C1CCN(CCOc2ccc3c(c2)C(=O)N(C2CCC(=O)NC2=O)C3=O)CC1 (stereo not shown) [Compound D51, 5-[2-[4-([[2,6-dimethoxy-4-(2-methyl-1-oxo-2,7-naphthyridin-4-yl)phenyl]methyl] (methyl)amino)piperidin-1-yl]ethoxy]-2-(2,6-dioxopiperidin-3-yl)isoindole-1,3-dione; formic acid] showed a DC50 (Table 5A) of under 10 nM.

COc1cc(-c2cn(C)c(=O)c3cnccc23)cc(OC)c1CN1CC(OCc2cn(CCOc3ccc4c(c3)C(=O)N(C3CCC(=O)NC3=O)C4=O)nn2)C1 (stereo not shown) [Compound D61, 5-(2-(4-(((1-(2,6-dimethoxy-4-(2-methyl-1-oxo-1,2-dihydro-2,7-naphthyridin-4-yl)benzyl)azetidin-3-yl)oxy)methyl)-1H-1,2,3-triazol-1-yl)ethoxy)-2-(2,6-dioxopiperidin-3-yl)isoindoline-1,3-dione] was tested, and the DC50 (Table 5A) was 10 to 100 nM.

Compound COc1cc(-c2cn(C)c(=O)c3cnccc23)cc(OC)c1CN1CC(CC(=O)N2CCC3(CC2)CN(c2ccc4c(c2)C(=O)N(C2CCC(=O)NC2=O)C4=O)C3)C1 (stereo not shown) [Compound D76] has a DC50 (Table 5A) of under 10 nM.

For COc1cc(-c2cn(C)c(=O)c3cnccc23)cc(OC)c1CN1CC(CC(=O)N2CC3(CCN(c4ccc5c(c4)C(=O)N(C4CCC(=O)NC4=O)C5=O)C3)C2)C1 (stereo not shown) [Compound D77], the DC50 (Table 5A) was 100 to 1000 nM.

Work on COc1cc(-c2cn(C)c(=O)c3cnccc23)cc(OC)c1CN1CC(CC(=O)NC2CC3(C2)CC(Oc2ccc4c(c2)C(=O)N(C2CCC(=O)NC2=O)C4=O)C3)C1 (stereo not shown) [Compound D78] yielded a DC50 (Table 5A) of 10 to 100 nM.

Compound COc1cc(-c2cn(C)c(=O)c3cnccc23)cc(OC)c1CN1CC(CC(=O)N2CC3(CCC(Oc4ccc5c(c4)C(=O)N(C4CCC(=O)NC4=O)C5=O)C3)C2)C1 (stereo not shown) [Compound D79] has a DC50 (Table 5A) of 100 to 1000 nM.

COc1cc(-c2cn(C)c(=O)c3cnccc23)cc(OC)c1CN1CC(CC(=O)N2CCC3(CC2)CC(Oc2ccc4c(c2)C(=O)N(C2CCC(=O)NC2=O)C4=O)C3)C1 (stereo not shown) [Compound D80] gave a DC50 (Table 5A) of under 10 nM.

In the case of COc1cc(-c2cn(C)c(=O)c3cnccc23)cc(OC)c1CN1CC2(C1)CN(C(=O)C#Cc1ccc3c(c1)C(=O)N(C1CCC(=O)NC1=O)C3=O)C2 (stereo not shown) [Compound D81], the DC50 (Table 5A) was under 10 nM.

With COc1cc(-c2cn(C)c(=O)c3cnccc23)cc(OC)c1CN1CCC2(CC1)CC(NC(=O)CCOCCOc1cccc3c1C(=O)N(C1CCC(=O)NC1=O)C3=O)C2 (stereo not shown) [Compound D82] the DC50 (Table 5A) was 10 to 100 nM.

Work on COc1cc(-c2cn(C)c(=O)c3cnccc23)cc(OC)c1CN1CC(CCNC(=O)CCOCCOc2cccc3c2C(=O)N(C2CCC(=O)NC2=O)C3=O)C1 (stereo not shown) [Compound D83] yielded a DC50 (Table 5A) of 100 to 1000 nM.

COc1cc(-c2cn(C)c(=O)c3cnccc23)cc(OC)c1CN1CC2(CCN(C(=O)CCOCCOc3cccc4c3C(=O)N(C3CCC(=O)NC3=O)C4=O)C2)C1 (stereo not shown) [Compound D90] showed a pIC50 (Table 5A) of 7.00 to 8.00.

Work on COc1cc(-c2cn(C)c(=O)c3cnccc23)cc(OC)c1CN(C)C1CCN(CCOc2ccc3c(c2)C(=O)N(C2CCC(=O)NC2=O)C3=O)CC1 (stereo not shown) [Compound D178] yielded a DC50 (Table 5B) of under 10 nM.

With COc1cc(-c2cn(C)c(=O)c3cnccc23)cc(OC)c1CN1CC(S(=O)(=O)NCCN2CCN(c3ccc4c(c3)C(=O)N(C3CCC(=O)NC3=O)C4=O)CC2)C1 (stereo not shown) [Compound D179] the DC50 (Table 5B) was 10 to 100 nM.

COc1cc(-c2cn(C)c(=O)c3cnccc23)cc(OC)c1CN1CC(CC(=O)N2CCC3(CC2)CN(c2ccc4c(c2)C(=O)N(C2CCC(=O)NC2=O)C4=O)C3)C1 (stereo not shown) [Compound D180] was tested, and the DC50 (Table 5B) was under 10 nM.

COc1cc(-c2cn(C)c(=O)c3cnccc23)cc(OC)c1CN1CC(CC(=O)N2CC3(CCN(c4ccc5c(c4)C(=O)N(C4CCC(=O)NC4=O)C5=O)C3)C2)C1 (stereo not shown) [Compound D181] showed a DC50 (Table 5B) of 100 to 1000 nM.

For COc1cc(-c2cn(C)c(=O)c3cnccc23)cc(OC)c1CN1CC(CC(=O)NC2CC3(C2)CC(Oc2ccc4c(c2)C(=O)N(C2CCC(=O)NC2=O)C4=O)C3)C1 (stereo not shown) [Compound D182], the DC50 (Table 5B) was 10 to 100 nM.

In the case of COc1cc(-c2cn(C)c(=O)c3cnccc23)cc(OC)c1CN1CC(CC(=O)N2CC3(CCC(Oc4ccc5c(c4)C(=O)N(C4CCC(=O)NC4=O)C5=O)C3)C2)C1 (stereo not shown) [Compound D183], the DC50 (Table 5B) was 100 to 1000 nM.

In the case of COc1cc(-c2cn(C)c(=O)c3cnccc23)cc(OC)c1CN1CC(CC(=O)N2CCC3(CC2)CC(Oc2ccc4c(c2)C(=O)N(C2CCC(=O)NC2=O)C4=O)C3)C1 (stereo not shown) [Compound D184], the DC50 (Table 5B) was under 10 nM.

COc1cc(-c2cn(C)c(=O)c3cnccc23)cc(OC)c1CN1CC2(C1)CN(C(=O)C#Cc1ccc3c(c1)C(=O)N(C1CCC(=O)NC1=O)C3=O)C2 (stereo not shown) [Compound D185] was tested, and the DC50 (Table 5B) was under 10 nM.

COc1cc(-c2cn(C)c(=O)c3cnccc23)cc(OC)c1CN(C)C(=O)CCCCN1CCC2(CC1)CN(c1ccc3c(c1)C(=O)N(C1CCC(=O)NC1=O)C3=O)C2 (stereo not shown) [Compound D186] showed a DC50 (Table 5B) of under 10 nM.

With COc1cc(-c2cn(C)c(=O)c3cnccc23)cc(OC)c1CN(C)C(=O)CCCCN1CC2(CCN(c3ccc4c(c3)C(=O)N(C3CCC(=O)NC3=O)C4=O)C2)C1 (stereo not shown) [Compound D187] the DC50 (Table 5B) was under 10 nM.

For COc1cc(-c2cn(C)c(=O)c3cnccc23)cc(OC)c1CN(C)C(=O)CCCCN1CCC2(CCN(c3ccc4c(c3)C(=O)N(C3CCC(=O)NC3=O)C4=O)C2)C1 (stereo not shown) [Compound D188], the DC50 (Table 5B) was under 10 nM.

COc1cc(-c2cn(C)c(=O)c3cnccc23)cc(OC)c1CN1CC(CC(=O)NC2CC3(CCN(c4ccc5c(c4)C(=O)N(C4CCC(=O)NC4=O)C5=O)CC3)C2)C1 (stereo not shown) [Compound D189] gave a DC50 (Table 5B) of under 10 nM.

COc1cc(-c2cn(C)c(=O)c3cnccc23)cc(OC)c1CN1CC(CC(=O)N2CC3(CCN(c4ccc5c(c4)C(=O)N(C4CCC(=O)NC4=O)C5=O)CC3)C2)C1 (stereo not shown) [Compound D190] was tested, and the DC50 (Table 5B) was 10 to 100 nM.

With COc1cc(-c2cn(C)c(=O)c3cnccc23)cc(OC)c1CN1CC(CC(=O)N2CCC3(CC2)CCN(c2ccc4c(c2)C(=O)N(C2CCC(=O)NC2=O)C4=O)C3)C1 (stereo not shown) [Compound D191] the DC50 (Table 5B) was under 10 nM.

Work on COc1cc(-c2cn(C)c(=O)c3cnccc23)cc(OC)c1CN1CC(CC(=O)N2CCC3(CCN(c4ccc5c(c4)C(=O)N(C4CCC(=O)NC4=O)C5=O)C3)C2)C1 (stereo not shown) [Compound D192] yielded a DC50 (Table 5B) of 100 to 1000 nM.

In the case of COc1cc(-c2cn(C)c(=O)c3cnccc23)cc(OC)c1CN1CC(CC(=O)N2CCC3(C2)CN(c2ccc4c(c2)C(=O)N(C2CCC(=O)NC2=O)C4=O)C3)C1 (stereo not shown) [Compound D193], the DC50 (Table 5B) was 100 to 1000 nM.

In the case of COc1cc(-c2cn(C)c(=O)c3cnccc23)cc(OC)c1CN1CC(CC(=O)NC2CC3(C2)CN(c2ccc4c(c2)C(=O)N(C2CCC(=O)NC2=O)C4=O)C3)C1 (stereo not shown) [Compound D194], the DC50 (Table 5B) was under 10 nM.

Compound COc1cc(-c2cn(C)c(=O)c3cnccc23)cc(OC)c1CN1CC(CC(=O)N2CC3(C2)CN(c2ccc4c(c2)C(=O)N(C2CCC(=O)NC2=O)C4=O)C3)C1 (stereo not shown) [Compound D195] has a DC50 (Table 5B) of 10 to 100 nM.

With COc1cc(-c2cn(C)c(=O)c3cnccc23)cc(OC)c1CN1CCC2(CC1)CN(CCCC#Cc1ccc3c(c1)C(=O)N(C1CCC(=O)NC1=O)C3=O)C2 (stereo not shown) [Compound D196] the DC50 (Table 5B) was 10 to 100 nM.

Work on COc1cc(-c2cn(C)c(=O)c3cnccc23)cc(OC)c1CN1CCC2(CC1)CN(C(=O)C#Cc1ccc3c(c1)C(=O)N(C1CCC(=O)NC1=O)C3=O)C2 (stereo not shown) [Compound D197] yielded a DC50 (Table 5B) of under 10 nM.

In the case of COc1cc(-c2cn(C)c(=O)c3cnccc23)cc(OC)c1CN1CC2(CCN(C(=O)C#Cc3ccc4c(c3)C(=O)N(C3CCC(=O)NC3=O)C4=O)CC2)C1 (stereo not shown) [Compound D198], the DC50 (Table 5B) was under 10 nM.

COc1cc(-c2cn(C)c(=O)c3cnccc23)cc(OC)c1CN1CCN(C(=O)CCC#Cc2ccc3c(c2)C(=O)N(C2CCC(=O)NC2=O)C3=O)CC1 (stereo not shown) [Compound D199] was tested, and the DC50 (Table 5B) was under 10 nM.

Work on COc1cc(-c2cn(C)c(=O)c3cnccc23)cc(OC)c1CN1CC2(C1)CN(C(=O)CCC#Cc1ccc3c(c1)C(=O)N(C1CCC(=O)NC1=O)C3=O)C2 (stereo not shown) [Compound D200] yielded a DC50 (Table 5B) of 10 to 100 nM.

COc1cc(-c2cn(C)c(=O)c3cnccc23)cc(OC)c1CN(C)C(=O)CCCCN1CC2(CCN(c3ccc4c(c3)C(=O)N(C3CCC(=O)NC3=O)C4=O)CC2)C1 (stereo not shown) [Compound D201] showed a DC50 (Table 5B) of under 10 nM.

In the case of COc1cc(-c2cn(C)c(=O)c3cnccc23)cc(OC)c1CN(C)C(=O)CCCCN1CCC2(CC1)CCN(c1ccc3c(c1)C(=O)N(C1CCC(=O)NC1=O)C3=O)C2 (stereo not shown) [Compound D202], the DC50 (Table 5B) was under 10 nM.

Work on COc1cc(-c2cn(C)c(=O)c3cnccc23)cc(OC)c1CN(C)C(=O)CCCCN1CCC2(C1)CN(c1ccc3c(c1)C(=O)N(C1CCC(=O)NC1=O)C3=O)C2 (stereo not shown) [Compound D203] yielded a DC50 (Table 5B) of under 10 nM.
